Source: publication PMC7767166, “Imidazole and Imidazolium Antibacterial Drugs Derived from Amino Acids” (Pharmaceuticals, 2020)
Read-outs that look alike come from different tables or passages of the source.

What was measured:
Bacillus subtilis 1904-E = assay: Bacterial growth inhibition assay (microdilution, OD 560 nm), MIC; type: cell-based; settings: read-out: B. subtilis MIC
Protocol: (§1) The in vitro antibacterial activities of the synthesized compounds were examined against E. coli and B. subtilis. Bacteria were incubated in culture media with varying concentrations of the examined compound and the antibacterial properties were determined by observation of the optical density at 560 nm (bacteriostatic activity) and by the Resazurin cell viability assay (bactericidal activity). The corresponding minimal bactericidal concentration (MBC) and minimum inhibitory concentration (MIC) values that were obtained are summarized in Table 1 (please refer to Table S1 for MIC and MBC values in μM). Two bacterial strains were used in the antibacterial assays: Escherichia coli DH5α as a Gram-negative model and Bacillus subtilis 1904-E as a Gram-positive model. Both bacterial strains were donated to our laboratory and can be provided on request by contacting the corresponding authors. Both bacterial strains were incubated at 37 °C and the pre-inoculum incubation time was of 24 h. Liquid Luria-Bertani (LB) medium was used for E. coli DH5α and nutrient broth (NB) for B. subtilis. The bacteria cell bank suspensions were thawed and inoculated in the appropriate liquid broth for 24 h at 37 °C with mild agitation. A dilution from these culture solutions was used for the following tests, corresponding to an inoculum of 1 × 10^7 CFU/mL. Stock solutions of all the tested compounds were prepared in DMSO at a concentration of 100 mg/mL, aliquoted, and stored at −20 °C. (A) Bacterial growth inhibition assay: Conditions here described are for testing 6 different concentrations of the compounds, with triplicates of each condition. Therefore, 4 compounds were tested per plate. An adapted version of the microdilution method was used. Firstly, the imidazole derivatives were dissolved in the corresponding broth at 2× the highest tested concentration. Then, 100 μL of the 2× solutions were added to the first (A) and second (B) row wells of a 96-well plate. In addition, 100 μL of liquid medium had been previously added to rows B to F. Subsequent dilutions at 1:2 are prepared in rows B to F, by withdrawal of 100 μL from the previous row (more concentrated) to the next row (half diluted), mixing well. Then, 100 μL were discarded from the last row (F). By now, there are 100 μL in each well, and 100 μL of bacterial suspension at 10^7 CFU/mL were added to each well. Then, the 96-well plates were incubated for 24 h at 37 °C under mild agitation. Bacterial growth was controlled both by visual observation of the turbidity in each well and by measuring the optical density (OD) at 560 nm at time 0 h and 24 h. Results are recorded as the lowest concentration of antimicrobial agent that inhibits visible growth of the bacteria, and were compared with the OD variation of a control culture containing E. coli or B. subtilis (+ control) and of solution of the tested compounds without bacteria (- control).

Escherichia coli DH5α = assay: as above; type: cell-based; settings: read-out: E. coli MIC
Protocol: as §1

[1] = Critical aggregation concentration by pyrene fluorescence (I1/I3); type: physicochemical; settings: for CAC Fluorescence, CCM:W, CAC1 / CAC Fluorescence, CCM:W, CAC2: 1/1 bacterial cell culture medium/water; for CAC Fluorescence, CCM:W, CAC1 / CAC Fluorescence, CCM:W, CAC2 / CAC Fluorescence, W: 25 °C; for CAC Fluorescence, CCM:W, CAC1: first break point; for CAC Fluorescence, CCM:W, CAC2: second break point; for CAC Fluorescence, W: in water, from the break point
Text: To investigate the microenvironment of the critical aggregation concentration (CAC) for self-assembly in water and in the bacterial cell culture medium by fluorescence, the intensity ratio of two of the peaks (I1/I3) of the pyrene fluorescence spectrum was used. Plots of the pyrene I1/I3 ratio as a function of the total surfactant concentration show a typical sigmoidal decrease in the region where self-assembly takes place. At low concentrations, this ratio is larger as it corresponds to a polar environment for pyrene. When the surfactant concentration increases this ratio decreases rapidly, as the self-assembly favors the location of pyrene in a more hydrophobic environment, until reaching a roughly constant value because of the full incorporation of the probe into the hydrophobic region of the aggregates. Different approaches have been used to estimate CAC values from I1/I3 ratios. The most common approach is the use of the break points, either directly or by extrapolating the values from the intersection of the two straight lines defined at the constant and variable regions of the I1/I3 sigmoidal curve. As CAC represents the threshold of concentration at which self-aggregation starts, the corresponding value can be estimated from the break point at lower concentration (see Figures S9–S14). Fluorescence studies were carried out using MilliQ® water and 1/1 MilliQ® water/bacterial cell culture medium, because with the pure cell culture medium, a strong broad fluorescence emission band was observed precluding an accurate analysis. […] The corresponding CACs obtained in water and in the 1/1 mixture of water/bacterial cell culture medium by fluorescence are shown in Table 2. Pyrene was used as a fluorescence probe to determine the CAC of the compounds in water and 1/1 water/bacterial cell culture medium at 25 ± 1 °C. Fluorescence measurements were performed with a Spex Fluorolog 3-11 instrument equipped with a 450 W xenon lamp (right angle mode). Firstly, a stock pyrene solution of 1.98 × 10^−4 mol/L was prepared in ultrapure methanol. Then, solutions of the imidazole and imidazolium salt compounds (ranging from 6 to 3 × 10^−3 mmol/L) were prepared in different vials and 5 μL of pyrene solution was transferred into the vials, reaching a final pyrene concentration of 9.89 × 10^−7 mol/L in each vial. Fluorescence spectra of pyrene were recorded from 200 to 650 nm after excitation at 337 nm, and the spectra were not corrected for the Xe lamp spectral response. The slit width was set at 5 nm for both excitation and emission. The peak intensities at 373 and 385 nm were determined as I1 and I3, respectively. The ratios of the peak intensities at 373 and 385 nm (I1/I3) for the emission spectra were recorded as a function of the logarithm of concentration. The CAC values were taken from the break point. Samples were excited with a 337 nm NanoLED.

[2] = 24 h, 37 °C, nutrient broth, minimum of three experiments
[3] = mode of at least three experiments
[4] = 24 h, 37 °C, LB medium, minimum of three experiments
[5] = bacterial cell culture medium/water

| Structure (SMILES) | MIC (Bacillus subtilis 1904-E; [2]) [µg/mL] | MIC (Bacillus subtilis 1904-E; [3]) [µM] | MIC (Escherichia coli DH5α; [4]) [µg/mL] | MIC (Escherichia coli DH5α; [3]) [µM] | CAC Fluorescence, CCM:W, CAC1 [1] [mM] | CAC Fluorescence, CCM:W, CAC2 [1] [mM] | CAC Fluorescence, W [1] [mM] | first break point (I1/I3 vs concentration) [1, 5] [µM] | second break point (I1/I3 vs concentration) [1, 5] | MIC (Bacillus subtilis 1904-E; 24 h, mode of at least three experiments) [µM] |
| --- | --- | --- | --- | --- | --- | --- | --- | --- | --- | --- |
| CCCCCCCCCCCCNC(=O)[C@H](C(C)C)n1ccnc1 [Compound 1a] | 16 | 48 | > 2000 | > 6000 | 0.004 | 0.045 | 0.085 |  |  |  |
| CCCCCCCCCCCCNC(=O)[C@H](C(C)C)n1cc[n+](Cc2ccccc2)c1 [Compound 1b] | 4 | 9 | 128 | 288 | 0.006 | 0.048 | 0.084 | 6 | ca. 48 μM |  |
| CCCCCCCCCCCCNC(=O)[C@H](C(C)C)n1cc[n+](Cc2cccc(C[n+]3ccn([C@@H](C(=O)NCCCCCCCCCCCC)C(C)C)c3)c2)c1 [Compound 1c] | 16 | 19 | 256 | 269 | 0.016 | 0.21 | 0.010 |  |  |  |
| CCCCNC(=O)[C@H](C(C)C)n1ccnc1 [Compound 2a] | > 2000 | > 9000 | > 2000 | > 9000 | 2.89 | 5.4 | 4.31 |  |  |  |
| CCCCNC(=O)[C@H](C(C)C)n1cc[n+](Cc2ccccc2)c1 [Compound 2b] | > 1000 |  | > 2000 | > 5000 | 3.46 | 8.4 | 4.57 |  |  | 2590 |
| CCCCNC(=O)[C@H](C(C)C)n1cc[n+](Cc2cccc(C[n+]3ccn([C@@H](C(=O)NCCCC)C(C)C)c3)c2)c1 [Compound 2c] | 128 | 180 | 1000 | 1440 | 2.25 | 3.54 | 2.34 |  |  |  |
| CCCCCCCCCCCCNC(=O)[C@H](Cc1ccccc1)n1ccnc1 [Compound 3a] | 16 | 42 | 1000 | 2660 | 0.018 | 0.325 | 0.033 |  |  |  |
| CCCCCCCCCCCCNC(=O)[C@H](Cc1ccccc1)n1cc[n+](Cc2ccccc2)c1 [Compound 3b] | 4 | 7 | 32 | 57 | 0.063 | 0.33 | 0.098 |  |  |  |
| CCCCCCCCCCCCNC(=O)[C@@H](Cc1ccccc1)n1cc[n+](Cc2cccc(C[n+]3ccn([C@@H](Cc4ccccc4)C(=O)NCCCCCCCCCCCC)c3)c2)c1 [Compound 3c] | 64 | 62 | 2000 | 1990 |  |  |  |  |  |  |
